PubChem BioAssay (NCI)
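All cell lines were grown in 96-well plates and treated with compound for 48 hours. Abbreviation: GI50, concentration required for 50% inhibition of growth. TGI marks complete inhibition of growth.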

Experiments:
Test in all cases: NCI anticancer screen, dose series, 48 h
MDA-MB-435 = system: MDA-MB-435
SN12C renal = system: SN12C renal
SF-268 CNS = system: SF-268 CNS
LOX IMVI melanoma = system: LOX IMVI melanoma
UACC-62 melanoma = system: UACC-62 melanoma
HCC-2998 colon = system: HCC-2998 colon
OVCAR-8 ovarian = system: OVCAR-8 ovarian
OVCAR-4 ovarian = system: OVCAR-4 ovarian
UACC-257 melanoma = system: UACC-257 melanoma
HCT-15 colon = system: HCT-15 colon

Row | SMILES | TGI (MDA-MB-435) [µM] | TGI (SN12C renal) [µM] | TGI (SF-268 CNS) [µM] | TGI (LOX IMVI melanoma) [µM] | TGI (UACC-62 melanoma) [µM] | TGI (HCC-2998 colon) [µM] | TGI (OVCAR-8 ovarian) [µM] | TGI (OVCAR-4 ovarian) [µM] | TGI (UACC-257 melanoma) [µM] | TGI (HCT-15 colon) [µM] | GI50 (MDA-MB-435) [µM] | GI50 (SN12C renal) [µM] | GI50 (SF-268 CNS) [µM] | GI50 (LOX IMVI melanoma) [µM] | GI50 (UACC-62 melanoma) [µM] | GI50 (HCC-2998 colon) [µM] | GI50 (OVCAR-8 ovarian) [µM] | GI50 (OVCAR-4 ovarian) [µM] | GI50 (UACC-257 melanoma) [µM] | GI50 (HCT-15 colon) [µM]
1 | O=C1C(C(c2ccc([N+](=O)[O-])cc2)N2CCOCC2)=C(O)C(c2ccccc2)N1c1ccccc1 (stereo not given) | > 10 | > 10 | > 10 | > 10 | > 10 | > 10 | > 10 | > 10 | > 10 | > 10 |  |  |  |  |  |  |  |  |  | 
2 | COc1ccc(C(=O)c2c(-c3ccccc3NC(=O)C(F)(F)F)[nH]c3ccccc23)cc1 | 25.5 | 28.3 | 28.7 | 16.1 | 25.8 | 9.11 | 23.5 | 19.2 | 29.9 | 19.9 |  |  |  |  |  |  |  |  |  | 
3 | COC(=O)[C@H]1[C@@H](O)[C@@]2(O)c3c(OC)cc(OC)cc3O[C@@]2(c2ccc3c(c2)OCO3)[C@@H]1c1ccccc1 | > 50 | 1.46 | 2.11 | 0.014 | > 50 | 5.18 | > 50 | > 10.1 | > 50 | 0.107 |  |  |  |  |  |  |  |  |  | 
4 | Cc1ccc(S(=O)(=O)/N=C2/N(C)CCCS2(=O)=O)cc1 | > 100 | > 100 | > 100 | > 100 | > 100 | > 100 | > 100 | > 100 | > 100 | > 100 |  |  |  |  |  |  |  |  |  | 
5 | Nc1ncnc2c1ncn2C1OC(CO)C(O)C1NS(=O)(=O)c1ccccc1 (stereo not given) | > 100 | > 100 | > 100 | > 100 | > 100 | > 100 | > 100 | > 100 | > 100 | > 100 |  |  |  |  |  |  |  |  |  | 
6 | O=C(/C=C/c1ccc(OCc2ccccc2)cc1)NCc1ccc(C(=O)NCc2ccccc2)cc1 | > 100 | > 100 | > 100 | > 100 | > 100 | > 100 | > 100 | > 100 | > 100 | > 100 |  |  |  |  |  |  |  |  |  | 
7 | O=C(CNc1nccs1)Nn1cnc2ccc(S(=O)(=O)Nc3nccs3)cc2c1=O | > 100 | > 100 | > 100 | > 100 | > 100 | > 100 | > 100 | > 100 | > 100 | > 100 |  |  |  |  |  |  |  |  |  | 
8 | COC(=O)CCCC1(CCCC(=O)OC)CCCCCCCCC(CCCC(=O)OC)(CCCC(=O)OC)C(=O)C1=O | > 100 | > 100 | 55.3 | 48.5 | 39.5 | > 100 | > 100 | 54.7 | > 100 | > 100 |  |  |  |  |  |  |  |  |  | 
9 | N#C/C=c1/c2ccccc2n2nc3ccccc3c12 | > 100 | > 100 | 34 | > 100 | > 100 | > 100 | > 100 | 31.5 | > 100 | > 100 |  |  |  |  |  |  |  |  |  | 
10 | C=CCNc1nc(O)c(/C=C2\C=Nc3ncccc32)s1 | 4.96 | 5.52 | 6.92 | > 100 | 4.22 | 58.5 | 10.3 | 24.9 | 21.2 | > 100 | 1.94 | 2.1 | 2.1 | 2.73 | 1.69 | 3.4 | 3.41 | 3.03 | 9.12 | 2.62
11 | CC(=O)NNC(=S)/N=C\c1c(O)c2ccccc2oc1=O | > 100 | > 100 | > 100 | > 100 | > 100 | > 100 | > 100 | > 100 | > 100 | > 100 |  |  |  |  |  |  |  |  |  | 
12 | Nc1nc2c(c(-c3ccccc3Cl)n1)COC/C2=C\c1ccccc1Cl | 24.7 | 31.3 | 34.3 | 36.9 | 30.6 | 34.6 | 30.8 | 39 | 34.7 | 39.9 |  |  |  |  |  |  |  |  |  | 
